Measurements taken from ChEMBL document CHEMBL2062409, “Conformationally-restricted cyclic sulfones as potent and selective mTOR kinase inhibitors” (Bioorg Med Chem Lett, 2012).

Experiments:
[1] = Clearance in human liver microsomes assessed per mg of protein; type: ADME, Microsome; conditions: read-out: CLH
[2] = target: T1, Phosphatidylinositol 4,5-bisphosphate 3-kinase catalytic subunit alpha isoform (Homo sapiens, UniProt P42336); assay: Inhibition of PI3Kalpha
[3] = Clearance in human hepatocytes assessed per million cells; type: ADME, cell-based, Hepatocyte; conditions: read-out: CLH
[4] = target: T2, Serine/threonine-protein kinase mTOR (Homo sapiens, UniProt P42345); assay: Inhibition of mTOR
Homo sapiens = species on record: Homo sapiens; assay: Selectivity ratio of Ki for PI3Kalpha to Ki for mTOR
[5] = Drug excretion in rat; type: ADME, organism-based; conditions: in vivo, read-out: Drug excretion
CYP1A2 = target: T3, CYP1A2 (Homo sapiens, UniProt P05177); assay: Inhibition of CYP1A2 at 3 uM; type: ADME
T3 sequence (P05177 whole entry): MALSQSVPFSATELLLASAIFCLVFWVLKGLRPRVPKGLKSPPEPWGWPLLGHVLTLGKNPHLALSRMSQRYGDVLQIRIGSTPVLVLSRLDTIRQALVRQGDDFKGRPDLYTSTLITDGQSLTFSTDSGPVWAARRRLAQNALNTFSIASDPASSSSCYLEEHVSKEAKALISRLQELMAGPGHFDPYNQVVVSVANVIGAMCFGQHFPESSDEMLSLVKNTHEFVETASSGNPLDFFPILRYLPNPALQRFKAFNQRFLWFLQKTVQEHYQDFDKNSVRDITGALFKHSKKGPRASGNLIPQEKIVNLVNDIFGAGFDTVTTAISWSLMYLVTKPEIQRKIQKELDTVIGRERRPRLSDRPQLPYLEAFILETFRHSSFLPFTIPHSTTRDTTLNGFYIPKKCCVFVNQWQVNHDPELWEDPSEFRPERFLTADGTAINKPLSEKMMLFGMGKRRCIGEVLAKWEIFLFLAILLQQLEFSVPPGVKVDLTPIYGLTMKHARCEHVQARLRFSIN

[6] = target: T2, Serine/threonine-protein kinase mTOR; assay: Inhibition of mTOR-mediated ribosomal protein S6 kinase phosphorylation by cell based assay
[7] = Clearance in rat; type: ADME, organism-based; conditions: in vivo
CYP2D6 = CYP2D6 (Homo sapiens, UniProt P10635); assay: Inhibition of CYP2D6 at 3 uM; type: ADME
Chain of CYP2D6 (P10635 whole entry): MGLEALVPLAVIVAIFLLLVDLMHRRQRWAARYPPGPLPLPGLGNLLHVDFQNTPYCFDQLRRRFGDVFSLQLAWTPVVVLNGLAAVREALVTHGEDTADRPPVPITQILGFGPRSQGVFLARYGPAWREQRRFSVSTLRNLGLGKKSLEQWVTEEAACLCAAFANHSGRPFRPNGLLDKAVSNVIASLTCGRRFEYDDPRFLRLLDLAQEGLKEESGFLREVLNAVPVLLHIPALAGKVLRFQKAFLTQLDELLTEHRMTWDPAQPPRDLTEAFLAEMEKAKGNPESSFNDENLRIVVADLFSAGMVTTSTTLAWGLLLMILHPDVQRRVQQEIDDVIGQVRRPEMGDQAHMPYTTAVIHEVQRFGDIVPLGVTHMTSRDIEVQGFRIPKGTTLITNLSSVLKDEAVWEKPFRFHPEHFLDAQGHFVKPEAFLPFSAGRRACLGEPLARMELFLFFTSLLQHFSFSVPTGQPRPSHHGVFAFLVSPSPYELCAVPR

[8] = Half life in rat; type: ADME, organism-based; conditions: in vivo
CYP3A4 = CYP3A4 (Homo sapiens, UniProt P08684); assay: Inhibition of CYP3A4 at 3 uM; type: ADME
Chain of CYP3A4 (P08684 whole entry): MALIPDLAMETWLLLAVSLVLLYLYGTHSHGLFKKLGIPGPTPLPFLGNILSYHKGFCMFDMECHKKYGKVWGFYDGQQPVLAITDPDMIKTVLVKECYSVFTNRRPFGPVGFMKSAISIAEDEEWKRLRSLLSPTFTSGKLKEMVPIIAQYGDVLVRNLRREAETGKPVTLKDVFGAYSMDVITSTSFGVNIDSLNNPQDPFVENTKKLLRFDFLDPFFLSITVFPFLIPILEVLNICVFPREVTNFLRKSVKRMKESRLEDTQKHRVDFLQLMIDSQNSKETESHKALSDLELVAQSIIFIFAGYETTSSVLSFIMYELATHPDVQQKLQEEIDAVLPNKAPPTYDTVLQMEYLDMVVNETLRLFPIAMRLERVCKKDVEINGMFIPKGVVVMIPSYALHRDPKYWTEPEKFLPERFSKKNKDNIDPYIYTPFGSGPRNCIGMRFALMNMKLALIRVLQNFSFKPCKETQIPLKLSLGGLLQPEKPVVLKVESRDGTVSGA

CYP2C9 = CYP2C9 (Homo sapiens, UniProt P11712); assay: Inhibition of CYP2C9 at 3 uM; type: ADME
Chain of CYP2C9 (P11712 whole entry): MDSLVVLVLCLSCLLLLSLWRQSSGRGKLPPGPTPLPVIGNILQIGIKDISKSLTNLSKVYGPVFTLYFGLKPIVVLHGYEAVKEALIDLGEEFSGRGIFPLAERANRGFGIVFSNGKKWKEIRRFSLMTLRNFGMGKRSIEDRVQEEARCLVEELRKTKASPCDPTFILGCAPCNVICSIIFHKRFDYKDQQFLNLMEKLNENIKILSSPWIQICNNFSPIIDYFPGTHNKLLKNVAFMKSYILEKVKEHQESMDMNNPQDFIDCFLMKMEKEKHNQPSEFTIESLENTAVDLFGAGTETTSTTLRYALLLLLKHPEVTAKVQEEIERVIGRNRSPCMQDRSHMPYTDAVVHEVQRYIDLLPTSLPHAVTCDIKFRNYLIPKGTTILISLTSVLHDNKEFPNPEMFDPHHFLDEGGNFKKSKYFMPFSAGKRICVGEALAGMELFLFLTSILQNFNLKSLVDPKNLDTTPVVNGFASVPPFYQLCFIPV

[9] = Oral bioavailability in rat; type: ADME, organism-based; conditions: in vivo
[10] = target: T2, Serine/threonine-protein kinase mTOR; assay: Inhibition of mTOR-mediated AKT phosphorylation at Ser473 by cell based assay
Salmonella typhimurium = assay: Genotoxicity in Salmonella typhimurium; type: toxicity, organism-based; conditions: salmonella enterica subsp. enterica serovar typhimurium
[11] = target: T1, Phosphatidylinositol 4,5-bisphosphate 3-kinase catalytic subunit alpha isoform; assay: Inhibition of PI3Kalpha at 100 nM

T1 sequence (P42336 whole entry, canonical isoform): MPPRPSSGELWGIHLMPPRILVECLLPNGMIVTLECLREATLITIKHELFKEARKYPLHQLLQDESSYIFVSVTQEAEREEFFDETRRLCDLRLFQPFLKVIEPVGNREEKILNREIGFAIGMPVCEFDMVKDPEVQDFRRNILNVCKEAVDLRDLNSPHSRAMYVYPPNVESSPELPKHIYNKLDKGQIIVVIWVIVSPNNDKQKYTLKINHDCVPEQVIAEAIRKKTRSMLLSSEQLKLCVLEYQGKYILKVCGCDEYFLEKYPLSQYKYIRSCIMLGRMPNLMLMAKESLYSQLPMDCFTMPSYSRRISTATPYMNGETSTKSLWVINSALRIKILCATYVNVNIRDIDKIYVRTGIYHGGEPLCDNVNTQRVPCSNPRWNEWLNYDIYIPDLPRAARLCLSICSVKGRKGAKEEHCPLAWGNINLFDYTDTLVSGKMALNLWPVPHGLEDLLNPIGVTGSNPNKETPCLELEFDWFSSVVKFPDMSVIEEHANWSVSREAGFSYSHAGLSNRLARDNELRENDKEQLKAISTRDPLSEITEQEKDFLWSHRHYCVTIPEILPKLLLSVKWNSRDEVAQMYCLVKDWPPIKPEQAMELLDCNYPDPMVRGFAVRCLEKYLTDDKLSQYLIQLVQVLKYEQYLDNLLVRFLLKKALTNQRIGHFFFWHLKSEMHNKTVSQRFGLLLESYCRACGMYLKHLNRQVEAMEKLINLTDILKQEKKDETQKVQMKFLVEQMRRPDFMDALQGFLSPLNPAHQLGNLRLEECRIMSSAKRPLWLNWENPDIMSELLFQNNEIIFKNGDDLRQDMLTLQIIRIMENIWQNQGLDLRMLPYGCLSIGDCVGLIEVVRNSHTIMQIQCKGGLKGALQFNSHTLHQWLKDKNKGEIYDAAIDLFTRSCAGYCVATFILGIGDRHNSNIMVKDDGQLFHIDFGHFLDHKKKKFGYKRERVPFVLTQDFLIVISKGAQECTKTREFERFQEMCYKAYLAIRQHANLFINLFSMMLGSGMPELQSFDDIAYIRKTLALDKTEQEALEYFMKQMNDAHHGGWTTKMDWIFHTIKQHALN

Compound	microsomal CLint [1]	Ki [2]	hepatocyte CLint [3]	Ki [4]	IC50 [10]	inhibition [11]	also measured
CCNC(=O)Nc1ccc(-c2nc3c(c(N4CCOCC4)n2)CS(=O)(=O)CC3)cc1	< 8 µL/min/mg	> 4550 nM	< 2 µL/min/1e6 cells	50 nM			
CCNC(=O)Nc1ccc(-c2nc3c(c(N4CCOCC4)n2)CS(=O)(=O)C3)cc1	< 8 µL/min/mg	514 nM	< 2 µL/min/1e6 cells	25 nM			Ratio Ki (Homo sapiens): 20
CCNC(=O)Nc1ccc(-c2nc3c(c(N4CCOC[C@@H]4C)n2)CS(=O)(=O)CC3)cc1	8.7 µL/min/mg	> 4550 nM	< 2 µL/min/1e6 cells	8 nM	48 nM		dose excreted [5]: 5.5%; inhibition at 3 µM (CYP1A2): ≤ 25%; IC50 [6]: 6 nM; clearance [7]: 66.2 mL/min/kg; inhibition at 3 µM (CYP2D6): ≤ 25%; half-life [8]: 1.05 h; inhibition at 3 µM (CYP3A4): ≤ 25%; inhibition at 3 µM (CYP2C9): ≤ 25%; bioavailability [9]: 30%; Ratio Ki (Homo sapiens): > 500; Activity (Salmonella typhimurium): Non-toxic
CCNC(=O)Nc1ccc(-c2nc3c(c(N4CCOC[C@@H]4C)n2)S(=O)(=O)CCC3)cc1	58 µL/min/mg	> 4550 nM	28 µL/min/1e6 cells	50 nM			
CCNC(=O)Nc1ccc(-c2nc3c(c(N4C[C@@H]5C[C@H]4CO5)n2)CS(=O)(=O)C3)cc1				62 nM	1290 nM	3%	
CCNC(=O)Nc1ccc(-c2nc3c(c(N4C[C@H]5CC[C@@H](C4)O5)n2)CS(=O)(=O)CC3)cc1		3000 nM		5 nM	55 nM		

Further molecules by falling Ki [4], results first:

microsomal CLint [1]	Ki [2]	hepatocyte CLint [3]	Ki [4]	IC50 [10]	inhibition [11]	Compound	also measured
25 µL/min/mg		11 µL/min/1e6 cells	120 nM		7%	CCNC(=O)Nc1ccc(-c2nc3c(c(N4CCOC[C@H]4C)n2)S(=O)(=O)CC3)cc1	
	> 4550 nM		52 nM			CCNC(=O)Nc1ccc(-c2nc3c(c(N4CCOC[C@H]4C)n2)CS(=O)(=O)CC3)cc1	
			7 nM	84 nM	18%	CCNC(=O)Nc1ccc(-c2nc3c(c(N4C[C@H]5CC[C@@H](C4)O5)n2)CS(=O)(=O)C3)cc1	
